These results are taken from publication PMC4102551, “Screening and Characterisation of Antimicrobial Properties of Semisynthetic Betulin Derivatives” (PLoS ONE, 2014).

In series [1] the test system is E. aerogenes ATCC 13048. The series is described as follows: Broth microdilution assay, E. aerogenes. The note with it: Klebsiella aerogenes, ATCC13048, 24 h, 50 µM, 24 h, inhibition of growth, mean ± SD; read-out: Inhibitory effect (%) E. aerogenes ATCC 13048. It is filed as cell-based, Enterobacter aerogenes. In short, it runs like this:
(§1)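 Broth microdilution per CLSI/EUCAST in Mueller Hinton II broth, 5×10^5 cfu/mL, 24 h at 37°C with agitation; growth by absorbance at 620 nm versus controls. Compounds first screened at 50 µM.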
Background: Dilution methods test growth across graded concentrations, often in twofold steps.

Series [2] relates to S. aureus ATCC 25923. The series is described as follows: Broth microdilution assay, S. aureus. It counts as cell-based, Staphylococcus aureus. The note with it: 50 µM, 24 h, inhibition of growth, mean ± SD; for inhibition at 50 µM: Staphylococcus aureus, ATCC25923, 24 h, read-out: Inhibitory effect (%) S. aureus ATCC 25923. Summed up: as §1
For series [3], the system named is P. aeruginosa ATCC 27853. The series is described as follows: Broth microdilution assay, P. aeruginosa. The note with it: Pseudomonas aeruginosa, ATCC27853, 24 h; read-out: Inhibitory effect (%) P. aeruginosa ATCC 27853. It counts as cell-based, Pseudomonas aeruginosa. In short, it runs like this: as §1
Series [4] concerns S. aureus infected HL cell line. Briefly: Host-pathogen co-culture assay. It is filed as cell-based, Staphylococcus aureus. The note with it: at the highest concentration (range 0.024–100 µM), 3 days. How it is done:
Briefly, HL cells used as the host cell were seeded at 40000 cells/well on black-walled microplates (Perkin Elmer) and incubated at 37°C, 5% CO2 and 95% humidity for 24 h. Cell monolayers were infected with 2000 cfus of S. aureus in RPMI 1640 media without antibiotics. Compounds were added to the media at different concentrations selected on the basis of the MIC determinations. […] Co-cultures were incubated for 3 days at 37°C, 5% CO2 and 95% humidity. Following the incubation period the cells were washed with 200 µL 6.7 mM PBS, pH 7.4, and finally, 200 µL 6.7 mM PBS, pH 7.4 containing 10 µg/mL fluorescein diacetate (FDA) was added to the cells to evaluate the survival of the host cells. After 45 min incubation at room temperature (RT), fluorescence was measured at 485 nm excitation and 538 nm emission with a Victor plate reader.
For studying simultaneously the efficacy and tolerability of antibacterial compounds, an assay based on co-culturing of a secondary human cell line (HL, derived originally from human lung) and a pathogen was used. […] In the assay, host cells are incubated in the presence of the test sample and are infected with bacteria. After 3 days of incubation, the host cell survival is determined using fluorescein diacetate to measure the viability of the host cells. […]

For series [5], the system named is E. faecalis ATCC 29212. The series is described as follows: Broth microdilution assay, E. faecalis. The note with it: 50 µM, 24 h, inhibition of growth, mean ± SD; for inhibition at 50 µM: Enterococcus faecalis, ATCC29212, 24 h, read-out: Inhibitory effect (%) E. faecalis ATCC 29212. It is filed as cell-based, Enterococcus faecalis. Summed up: as §1
Series [6] concerns E. coli ATCC 25922. The series is described as follows: Broth microdilution assay, E. coli. It counts as cell-based, Escherichia coli. The settings on record: Escherichia coli, ATCC25922, 24 h; read-out: Inhibitory effect (%) E. coli ATCC 25922. In short, it runs like this: as §1
For series [7], the system named is C. albicans ATCC 90028. Briefly: Broth microdilution assay, C. albicans. The settings on record: for inhibition at 50 µM: Candida albicans, ATCC90028, 48 h, read-out: Inhibitory effect (%) C. albicans ATCC 90028. It counts as cell-based, Candida albicans. Summed up: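 Candida albicans ATCC 90028 was grown on Sabouraud Dextrose Agar at 27°C for 16–18 h, then suspended in sterile 0.9% saline. Broth microdilution in clear 96-well plates mixed equal volumes of yeast suspension and diluted sample. Plates were incubated with agitation at 35°C for 48 h. Absorbance at 620 nm was read at 0, 24 and 48 h, and growth inhibition was expressed as a percentage relative to controls.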

The subject of series [8] is Huh-7 cells. Briefly: in vitro. It counts as cell-based, human. The note with it: 50 µM. Summed up: (§2)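 Cytotoxicity read-out: intracellular ATP (CellTiter-Glo luminescence) in Huh-7 hepatoma cells seeded at 20000 cells/well, cultured overnight, then exposed to compounds for 24 h at 37°C in 5% FBS medium. Polymyxin B sulphate (15000 IU/mL) served as positive control.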

Series [9] is described as follows: in vitro. It counts as cell-based, human. The settings on record: human. In short, it runs like this: as §2
Series [10] deals with P. aeruginosa. The arrangement: method as in earlier work. The note with it: ref 32; cited from earlier work.
Series [11] relates to Streptococcus pyogenes. Also on record: method as in PMID 29255382. The settings on record: ref 11; cited from earlier work.
Series [12] deals with C. albicans. The note with it: cited from earlier work.
Series [13] has as its system E. coli. Also on record: method as in earlier work. The note with it: ref 32; cited from earlier work.
For series [14], the system named is S. aureus. The arrangement: method as in earlier work. The note with it: ref 32; cited from earlier work.
A short description of series [15]: Storage stability of samples. It is filed as physicochemical. The note with it: ambient temperature, air atmosphere, several years. An excerpt: Betulin 1 is a stable compound, as we have not noticed any degradation of samples even if stored at ambient temperature under air atmosphere for several years. […] Thus, instability issues cannot be seen as a major concern regarding the betulin derivatives of this study.

Converted amounts (≈) assume the structure as drawn. “And” between values parts separate entries of the source, which are not always exact repeats. Equal entries are not always repeated. Where two headings read alike, the source gives them in different places.

Regarding `C=C(C)[C@@H]1CC[C@]2(C(=O)O)CC[C@]3(C)C(CCC4[C@@]5(C)CCC(=O)C(C)(C)C5CC[C@]43C)C12` (stereo partly shown) [Compound 23, betulonic acid], the inhibition at 50 µM in series [1] is 21.8 ± 4.1%; in [2], 51%; in series [3], 9.5 ± 2.5%; in series [5], over 70%; in series [6], 9.1 ± 8.9%; in series [7] it was 25.2 ± 11%. Moreover, the “Inhibitory effect (%) S. aureus ATCC 25923” value in [2] worked out at 51.1±7.3%. In series [4], the “Activity in host-pathogen co-culture assay” value worked out at 27%. For the same compound, the “Inhibitory effect (%) E. faecalis ATCC 29212” value in series [5] was 74% and 74.3±0.8%. Further, in series [8] (human, 24 h), the “Cytotoxicity (%) Huh-7 cells” value stood at 17.8±12.6%. Besides, the cytotoxicity at 24 h, 50 µM in series [9] (Cytotoxicity (%) Huh-7 cells) is 18%.
Consider `C=C(C)[C@@H]1CC[C@]2(CO)CC[C@]3(C)[C@H](CC[C@@H]4[C@@]5(C)CC[C@H](O)C(C)(C)[C@@H]5CC[C@]43C)[C@@H]12` [Compound 1, lup-20(29)-ene-3β, 28-diol], for which the “MIC against P. aeruginosa” value in series [10] was 250 µg/mL (≈ 565 µM). The inhibition at 50 µM was 5.7 ± 2.1% in [1]; -6.7 ± 6.4% in series [2]; -1.2 ± 2.5% in [3]; 20% in series [5]; 1.3 ± 5.1% in series [6]; -27.5 ± 15% in series [7]. Further, in [11], the “MIC against S. pyogenes” value is listed as 85 µg/mL (≈ 192 µM). In addition, the “MIC against C. albicans” value in series [12] (ref 12) is on record as 250 µg/mL (≈ 565 µM); in [12] (ref 41) it was 180 µg/mL (≈ 407 µM). In addition, the “MIC against E. coli” value in series [13] is 250 µg/mL (≈ 565 µM). Also, the “MIC against S. aureus” value in series [14] is 250 µg/mL (≈ 565 µM). Also, the Stability on storage result in series [15] was “stable”. Also, the “Inhibitory effect (%) E. faecalis ATCC 29212” value in [5] was 19.7±6.2%. The “Inhibitory effect (%) C. albicans ATCC 90028” value in [7] (50 µM, 48 h at 35°C, inhibition of growth, mean ± SD) is “inactive”. The “Cytotoxicity (%) Huh-7 cells” value in series [8] (24 h exposure, ATP content, 5% FBS) stood at 13.7±2.7%. In addition, in series [9] (50 µM, 24 h exposure, ATP content, 5% FBS, read-out: Cytotoxicity (%) Huh-7 cells), the cytotoxicity at 24 h, 50 µM stood at 14%.
